Source: ChEMBL document CHEMBL5212743, “Selectivity Literature for EUbOPEN Chemogenomics Library wave 3” (2023)
Values belong to the compound of their own block, whether it stands above or below them.

Columns and labels:
[1] = biological target: Protein kinase C epsilon type (Homo sapiens) (UniProt Q02156); assay: Selectivity interaction (KinomeScan (DiscoverX)) EUB0000328a PRKCE; details: at 1 µM
[2] = biological target: Sodium-dependent dopamine transporter (Homo sapiens, UniProt Q01959); assay: Selectivity interaction (Enzyme panel (CEREP ligand profiling)) EUB0000328a SLC6A3; details: at 10 µM
[3] = biological target: T1, Serine/threonine-protein kinase LATS2 (Homo sapiens) (UniProt Q9NRM7); assay: Selectivity interaction (KinomeScan (DiscoverX)) EUB0000328a LATS2; details: at 1 µM
T1 sequence (whole entry): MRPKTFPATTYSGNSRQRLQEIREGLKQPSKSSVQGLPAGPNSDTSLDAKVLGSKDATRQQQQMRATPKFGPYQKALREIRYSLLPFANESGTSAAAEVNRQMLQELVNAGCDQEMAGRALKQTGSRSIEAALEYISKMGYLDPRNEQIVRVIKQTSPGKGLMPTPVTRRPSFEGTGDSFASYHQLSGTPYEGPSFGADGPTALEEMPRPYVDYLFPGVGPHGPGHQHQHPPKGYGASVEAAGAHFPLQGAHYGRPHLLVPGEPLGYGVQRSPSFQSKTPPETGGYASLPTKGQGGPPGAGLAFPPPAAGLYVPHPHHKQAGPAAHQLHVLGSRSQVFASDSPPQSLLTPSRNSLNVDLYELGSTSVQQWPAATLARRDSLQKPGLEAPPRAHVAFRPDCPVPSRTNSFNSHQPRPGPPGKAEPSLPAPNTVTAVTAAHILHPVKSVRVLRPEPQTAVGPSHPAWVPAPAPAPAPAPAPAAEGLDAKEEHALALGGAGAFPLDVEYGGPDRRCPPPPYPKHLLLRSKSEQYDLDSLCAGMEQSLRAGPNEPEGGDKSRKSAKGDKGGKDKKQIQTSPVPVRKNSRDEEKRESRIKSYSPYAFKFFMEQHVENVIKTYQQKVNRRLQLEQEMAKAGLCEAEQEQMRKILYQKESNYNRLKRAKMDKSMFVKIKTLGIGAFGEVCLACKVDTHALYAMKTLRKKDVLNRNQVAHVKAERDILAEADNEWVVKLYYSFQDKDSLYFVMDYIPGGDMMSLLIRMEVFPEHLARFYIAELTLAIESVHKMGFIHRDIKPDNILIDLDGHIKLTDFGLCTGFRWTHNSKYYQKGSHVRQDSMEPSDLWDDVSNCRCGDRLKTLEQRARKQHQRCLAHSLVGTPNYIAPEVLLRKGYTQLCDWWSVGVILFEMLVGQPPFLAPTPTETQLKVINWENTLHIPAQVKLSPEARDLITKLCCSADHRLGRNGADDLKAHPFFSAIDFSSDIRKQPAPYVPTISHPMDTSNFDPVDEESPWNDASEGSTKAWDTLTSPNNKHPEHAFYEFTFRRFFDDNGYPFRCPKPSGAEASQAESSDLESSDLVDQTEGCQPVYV

[4] = system: Tyrosine-protein kinase ABL1 (Homo sapiens), P00519 [H396P]; assay: Selectivity interaction (KinomeScan (DiscoverX)) EUB0000328a ABL1; details: at 1 µM
[5] = biological target: T2, Gamma-aminobutyric acid receptor subunit alpha-1 (Homo sapiens, UniProt P14867); assay: Selectivity interaction (GPCR panel (PDSP screen)) EUB0000328a GABRA1
T2 sequence (P14867 whole entry): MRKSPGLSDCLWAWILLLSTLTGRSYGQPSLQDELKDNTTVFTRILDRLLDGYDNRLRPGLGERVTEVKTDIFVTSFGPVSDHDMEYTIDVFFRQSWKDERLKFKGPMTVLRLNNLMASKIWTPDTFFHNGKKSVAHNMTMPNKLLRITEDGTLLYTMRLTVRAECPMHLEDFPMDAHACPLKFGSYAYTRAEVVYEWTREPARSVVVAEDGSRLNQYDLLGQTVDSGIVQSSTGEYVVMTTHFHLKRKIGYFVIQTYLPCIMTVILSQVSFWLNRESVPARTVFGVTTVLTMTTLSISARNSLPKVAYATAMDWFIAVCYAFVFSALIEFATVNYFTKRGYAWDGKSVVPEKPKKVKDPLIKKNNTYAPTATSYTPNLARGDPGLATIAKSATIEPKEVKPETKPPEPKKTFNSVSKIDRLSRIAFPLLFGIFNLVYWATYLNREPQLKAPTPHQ

[6] = biological target: Sodium-dependent serotonin transporter (Homo sapiens) (UniProt P31645); assay: Selectivity interaction (Enzyme panel (CEREP ligand profiling)) EUB0000328a SLC6A4; details: at 10 µM
Sodium-dependent serotonin transporter (Homo sapiens), sequence (P31645 whole entry, looked up): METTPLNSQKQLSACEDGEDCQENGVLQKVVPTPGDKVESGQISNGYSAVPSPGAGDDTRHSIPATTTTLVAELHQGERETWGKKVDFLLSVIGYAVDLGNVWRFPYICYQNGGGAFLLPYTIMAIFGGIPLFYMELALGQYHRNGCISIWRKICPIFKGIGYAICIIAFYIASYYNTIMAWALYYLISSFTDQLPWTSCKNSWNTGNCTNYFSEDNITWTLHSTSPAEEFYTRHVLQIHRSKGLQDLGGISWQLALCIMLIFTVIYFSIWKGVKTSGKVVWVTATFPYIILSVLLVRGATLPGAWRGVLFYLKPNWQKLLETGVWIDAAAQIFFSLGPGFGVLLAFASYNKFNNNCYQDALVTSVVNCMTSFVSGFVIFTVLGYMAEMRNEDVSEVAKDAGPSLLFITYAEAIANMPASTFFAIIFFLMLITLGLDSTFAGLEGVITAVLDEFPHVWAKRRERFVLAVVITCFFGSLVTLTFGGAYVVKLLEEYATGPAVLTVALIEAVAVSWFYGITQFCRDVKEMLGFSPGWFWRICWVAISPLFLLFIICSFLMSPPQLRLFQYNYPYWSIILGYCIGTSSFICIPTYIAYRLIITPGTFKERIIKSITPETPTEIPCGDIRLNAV

[7] = biological target: Histone-lysine N-methyltransferase, H3 lysine-79 specific (Homo sapiens, UniProt Q8TEK3); assay: Selectivity interaction (Methyltransferase panel (Scintillation proximity assay (SPA))) EUB0000212b DOT1L
[8] = biological target: Protein arginine N-methyltransferase 8 (Homo sapiens, UniProt Q9NR22); assay: Selectivity interaction (Methyltransferase panel (Scintillation proximity assay (SPA))) EUB0000212b PRMT8
[9] = biological target: Histone-lysine N-methyltransferase 2A (Homo sapiens, UniProt Q03164); assay: Selectivity interaction (Methyltransferase panel (Scintillation proximity assay (SPA))) EUB0000212b MLL
Histone-lysine N-methyltransferase 2A, sequence (Q03164 1-2718 limits assumed): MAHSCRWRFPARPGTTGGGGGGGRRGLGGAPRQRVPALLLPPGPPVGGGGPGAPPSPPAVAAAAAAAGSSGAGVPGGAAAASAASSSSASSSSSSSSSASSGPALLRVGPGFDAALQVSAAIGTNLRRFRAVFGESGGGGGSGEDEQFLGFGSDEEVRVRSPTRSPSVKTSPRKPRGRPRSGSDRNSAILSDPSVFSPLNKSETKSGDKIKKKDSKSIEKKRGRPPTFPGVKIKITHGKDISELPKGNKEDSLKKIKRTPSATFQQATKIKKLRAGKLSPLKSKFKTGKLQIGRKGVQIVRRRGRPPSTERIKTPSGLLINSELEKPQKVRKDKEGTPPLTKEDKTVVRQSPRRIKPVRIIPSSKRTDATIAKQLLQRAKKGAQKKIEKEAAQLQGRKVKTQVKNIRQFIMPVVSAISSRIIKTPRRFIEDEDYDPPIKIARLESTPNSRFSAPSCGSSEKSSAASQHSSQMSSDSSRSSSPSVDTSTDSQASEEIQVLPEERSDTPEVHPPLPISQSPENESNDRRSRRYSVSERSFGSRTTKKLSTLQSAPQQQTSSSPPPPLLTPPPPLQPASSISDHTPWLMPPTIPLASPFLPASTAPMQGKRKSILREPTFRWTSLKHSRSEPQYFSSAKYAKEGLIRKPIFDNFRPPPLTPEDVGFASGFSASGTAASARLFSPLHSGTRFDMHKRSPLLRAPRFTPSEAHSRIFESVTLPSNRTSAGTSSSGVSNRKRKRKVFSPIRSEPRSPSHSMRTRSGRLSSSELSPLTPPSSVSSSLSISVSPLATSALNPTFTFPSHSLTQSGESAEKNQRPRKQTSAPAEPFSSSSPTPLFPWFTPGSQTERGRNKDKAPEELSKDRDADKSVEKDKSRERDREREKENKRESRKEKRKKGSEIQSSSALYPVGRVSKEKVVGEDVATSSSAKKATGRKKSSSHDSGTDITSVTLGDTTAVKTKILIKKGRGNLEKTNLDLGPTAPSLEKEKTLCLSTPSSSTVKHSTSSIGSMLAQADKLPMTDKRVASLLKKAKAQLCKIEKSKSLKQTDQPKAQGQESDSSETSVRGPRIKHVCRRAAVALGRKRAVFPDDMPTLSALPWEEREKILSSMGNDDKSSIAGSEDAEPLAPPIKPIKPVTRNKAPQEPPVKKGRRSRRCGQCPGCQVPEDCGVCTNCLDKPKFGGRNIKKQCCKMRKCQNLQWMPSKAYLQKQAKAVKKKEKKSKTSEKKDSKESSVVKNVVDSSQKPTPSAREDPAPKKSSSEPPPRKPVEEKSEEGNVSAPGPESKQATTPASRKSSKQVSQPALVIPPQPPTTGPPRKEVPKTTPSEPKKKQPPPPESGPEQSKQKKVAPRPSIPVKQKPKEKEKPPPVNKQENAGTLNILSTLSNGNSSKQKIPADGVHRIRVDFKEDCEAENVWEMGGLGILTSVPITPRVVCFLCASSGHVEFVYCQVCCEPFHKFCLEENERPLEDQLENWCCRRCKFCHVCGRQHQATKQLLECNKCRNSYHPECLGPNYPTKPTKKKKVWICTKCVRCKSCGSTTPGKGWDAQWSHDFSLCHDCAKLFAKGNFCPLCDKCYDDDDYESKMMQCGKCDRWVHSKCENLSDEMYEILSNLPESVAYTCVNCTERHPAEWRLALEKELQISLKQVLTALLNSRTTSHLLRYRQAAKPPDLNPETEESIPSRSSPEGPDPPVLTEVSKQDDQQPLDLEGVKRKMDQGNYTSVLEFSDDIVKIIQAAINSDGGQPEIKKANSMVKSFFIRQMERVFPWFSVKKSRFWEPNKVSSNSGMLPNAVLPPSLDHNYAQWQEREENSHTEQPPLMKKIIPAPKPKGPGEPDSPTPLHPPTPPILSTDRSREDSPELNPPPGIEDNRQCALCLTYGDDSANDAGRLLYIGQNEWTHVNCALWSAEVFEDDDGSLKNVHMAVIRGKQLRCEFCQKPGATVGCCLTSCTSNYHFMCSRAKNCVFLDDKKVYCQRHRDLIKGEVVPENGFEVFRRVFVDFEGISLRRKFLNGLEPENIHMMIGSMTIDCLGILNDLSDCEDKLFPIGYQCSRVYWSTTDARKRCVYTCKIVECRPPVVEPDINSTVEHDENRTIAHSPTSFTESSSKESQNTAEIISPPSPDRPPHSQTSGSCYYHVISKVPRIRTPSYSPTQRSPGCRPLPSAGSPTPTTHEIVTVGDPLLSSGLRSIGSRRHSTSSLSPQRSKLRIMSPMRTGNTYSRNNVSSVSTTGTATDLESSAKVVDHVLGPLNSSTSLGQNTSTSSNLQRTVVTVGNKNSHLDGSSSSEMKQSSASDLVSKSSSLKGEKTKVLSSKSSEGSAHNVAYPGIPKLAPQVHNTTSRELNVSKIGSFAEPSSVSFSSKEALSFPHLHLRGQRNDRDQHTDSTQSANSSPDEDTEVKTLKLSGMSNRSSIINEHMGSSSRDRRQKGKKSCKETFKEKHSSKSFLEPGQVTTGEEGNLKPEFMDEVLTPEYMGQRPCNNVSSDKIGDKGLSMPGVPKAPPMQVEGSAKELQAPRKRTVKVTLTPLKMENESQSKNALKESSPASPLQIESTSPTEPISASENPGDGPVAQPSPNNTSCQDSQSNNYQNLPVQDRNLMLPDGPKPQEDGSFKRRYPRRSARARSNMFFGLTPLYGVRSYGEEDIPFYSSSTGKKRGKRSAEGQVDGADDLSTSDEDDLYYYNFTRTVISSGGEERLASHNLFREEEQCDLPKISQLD
Histone-lysine N-methyltransferase 2A, sequence (Q03164 2719-3969 limits assumed): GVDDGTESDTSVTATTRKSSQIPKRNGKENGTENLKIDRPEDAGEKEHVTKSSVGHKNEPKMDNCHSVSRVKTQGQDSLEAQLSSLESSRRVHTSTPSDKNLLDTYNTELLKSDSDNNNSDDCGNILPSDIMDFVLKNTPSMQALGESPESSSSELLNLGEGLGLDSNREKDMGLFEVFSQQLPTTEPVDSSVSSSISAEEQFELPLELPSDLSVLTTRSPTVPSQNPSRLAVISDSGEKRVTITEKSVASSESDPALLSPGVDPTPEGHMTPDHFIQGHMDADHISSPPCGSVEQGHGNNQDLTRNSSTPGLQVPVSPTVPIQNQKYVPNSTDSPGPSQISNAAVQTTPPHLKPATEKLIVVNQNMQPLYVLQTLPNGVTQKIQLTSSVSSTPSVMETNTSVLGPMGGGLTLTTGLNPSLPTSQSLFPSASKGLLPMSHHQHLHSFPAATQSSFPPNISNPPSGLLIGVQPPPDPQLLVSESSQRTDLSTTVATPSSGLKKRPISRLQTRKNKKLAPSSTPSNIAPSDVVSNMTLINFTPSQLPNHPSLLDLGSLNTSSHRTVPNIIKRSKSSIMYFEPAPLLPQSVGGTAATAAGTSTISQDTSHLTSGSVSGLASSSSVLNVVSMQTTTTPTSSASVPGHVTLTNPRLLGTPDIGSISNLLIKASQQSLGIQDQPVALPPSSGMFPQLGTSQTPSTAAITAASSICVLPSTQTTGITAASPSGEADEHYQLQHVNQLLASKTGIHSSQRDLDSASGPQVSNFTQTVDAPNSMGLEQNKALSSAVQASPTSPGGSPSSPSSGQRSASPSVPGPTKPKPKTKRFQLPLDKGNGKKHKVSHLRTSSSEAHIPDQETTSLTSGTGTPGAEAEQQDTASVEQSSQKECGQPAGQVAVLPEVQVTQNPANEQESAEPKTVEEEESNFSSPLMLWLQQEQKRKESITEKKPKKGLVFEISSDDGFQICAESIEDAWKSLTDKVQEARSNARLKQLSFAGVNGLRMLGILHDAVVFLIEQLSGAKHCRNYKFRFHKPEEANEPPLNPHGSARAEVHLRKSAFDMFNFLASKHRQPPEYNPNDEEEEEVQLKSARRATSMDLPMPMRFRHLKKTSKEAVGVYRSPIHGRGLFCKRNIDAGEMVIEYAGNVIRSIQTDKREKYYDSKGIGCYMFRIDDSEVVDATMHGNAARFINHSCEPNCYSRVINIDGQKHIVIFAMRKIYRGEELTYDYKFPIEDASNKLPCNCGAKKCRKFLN

[10] = biological target: Histone-lysine N-methyltransferase SMYD3 (Homo sapiens, UniProt Q9H7B4); assay: Selectivity interaction (Methyltransferase panel (Scintillation proximity assay (SPA))) EUB0000212b SMYD3
[11] = biological target: Histone-lysine N-methyltransferase EZH2 (Homo sapiens, UniProt Q15910); assay: Selectivity interaction (Methyltransferase panel (Scintillation proximity assay (SPA))) EUB0000212b EZH2
[12] = biological target: T3, N-lysine methyltransferase KMT5A (Homo sapiens, UniProt Q9NQR1); assay: Selectivity interaction (Methyltransferase panel (Scintillation proximity assay (SPA))) EUB0000212b SETD8
T3 sequence (Q9NQR1 whole entry): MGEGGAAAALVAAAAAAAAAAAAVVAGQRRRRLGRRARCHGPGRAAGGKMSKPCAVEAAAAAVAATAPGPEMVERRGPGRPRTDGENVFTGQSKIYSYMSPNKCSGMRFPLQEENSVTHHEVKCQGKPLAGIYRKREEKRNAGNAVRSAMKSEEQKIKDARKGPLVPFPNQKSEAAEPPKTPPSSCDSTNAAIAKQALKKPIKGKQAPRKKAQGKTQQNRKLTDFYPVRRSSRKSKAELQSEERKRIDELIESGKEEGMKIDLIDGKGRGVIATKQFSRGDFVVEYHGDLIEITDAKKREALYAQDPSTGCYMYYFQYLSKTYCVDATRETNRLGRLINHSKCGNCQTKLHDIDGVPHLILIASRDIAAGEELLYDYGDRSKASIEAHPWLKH

[13] = biological target: DNA (cytosine-5)-methyltransferase 1 (Homo sapiens, UniProt P26358); assay: Selectivity interaction (Methyltransferase panel (Scintillation proximity assay (SPA))) EUB0000212b DNMT1
[14] = biological target: Protein arginine N-methyltransferase 5 (Homo sapiens, UniProt O14744); assay: Selectivity interaction (Methyltransferase panel (Scintillation proximity assay (SPA))) EUB0000212b PRMT5
[15] = biological target: Histone-lysine N-methyltransferase KMT5C (Homo sapiens, UniProt Q86Y97); assay: Selectivity interaction (Methyltransferase panel (Scintillation proximity assay (SPA))) EUB0000212b SUV420H2
Histone-lysine N-methyltransferase KMT5C, sequence (Q86Y97 whole entry): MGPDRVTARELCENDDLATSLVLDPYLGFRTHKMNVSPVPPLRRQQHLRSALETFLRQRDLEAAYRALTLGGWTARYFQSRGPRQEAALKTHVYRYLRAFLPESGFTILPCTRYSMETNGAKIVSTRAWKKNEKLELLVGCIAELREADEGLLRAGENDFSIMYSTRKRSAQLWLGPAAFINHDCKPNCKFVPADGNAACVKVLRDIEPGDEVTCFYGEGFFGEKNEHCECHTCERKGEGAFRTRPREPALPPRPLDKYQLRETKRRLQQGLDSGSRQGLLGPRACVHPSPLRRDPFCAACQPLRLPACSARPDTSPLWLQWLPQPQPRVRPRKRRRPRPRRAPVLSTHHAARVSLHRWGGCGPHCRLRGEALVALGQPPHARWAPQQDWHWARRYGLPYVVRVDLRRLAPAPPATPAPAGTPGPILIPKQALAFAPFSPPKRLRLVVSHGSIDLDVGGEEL

[16] = biological target: Protein arginine N-methyltransferase 1 (Homo sapiens, UniProt Q99873); assay: Selectivity interaction (Methyltransferase panel (Scintillation proximity assay (SPA))) EUB0000212b PRMT1
[17] = biological target: Protein arginine N-methyltransferase 6 (Homo sapiens, UniProt Q96LA8); assay: Selectivity interaction (Methyltransferase panel (Scintillation proximity assay (SPA))) EUB0000212b PRMT6
[18] = biological target: Histone-lysine N-methyltransferase KMT5B (Homo sapiens, UniProt Q4FZB7); assay: Selectivity interaction (Methyltransferase panel (Scintillation proximity assay (SPA))) EUB0000212b SUV420H1
[19] = biological target: T4, Histone-lysine N-methyltransferase SETD7 (Homo sapiens, UniProt Q8WTS6); assay: Selectivity interaction (Methyltransferase panel (Scintillation proximity assay (SPA))) EUB0000212b SETD7
T4 sequence (Q8WTS6 whole entry): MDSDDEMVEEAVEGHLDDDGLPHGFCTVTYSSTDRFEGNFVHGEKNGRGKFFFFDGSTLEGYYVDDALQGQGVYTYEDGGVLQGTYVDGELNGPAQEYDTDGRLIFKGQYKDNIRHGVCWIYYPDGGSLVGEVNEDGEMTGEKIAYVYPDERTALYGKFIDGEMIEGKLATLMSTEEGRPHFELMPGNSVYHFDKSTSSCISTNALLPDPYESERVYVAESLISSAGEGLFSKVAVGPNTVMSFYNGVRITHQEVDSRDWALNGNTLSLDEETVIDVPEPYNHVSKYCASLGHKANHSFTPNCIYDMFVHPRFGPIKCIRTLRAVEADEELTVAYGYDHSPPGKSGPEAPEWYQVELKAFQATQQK

[20] = biological target: Histone-lysine N-methyltransferase SUV39H2 (Homo sapiens, UniProt Q9H5I1); assay: Selectivity interaction (Methyltransferase panel (Scintillation proximity assay (SPA))) EUB0000212b SUV39H2
[21] = biological target: T5, Histone-lysine N-methyltransferase EZH1 (Homo sapiens, UniProt Q92800); assay: Selectivity interaction (Methyltransferase panel (Scintillation proximity assay (SPA))) EUB0000212b EZH1
T5 sequence (Q92800 whole entry): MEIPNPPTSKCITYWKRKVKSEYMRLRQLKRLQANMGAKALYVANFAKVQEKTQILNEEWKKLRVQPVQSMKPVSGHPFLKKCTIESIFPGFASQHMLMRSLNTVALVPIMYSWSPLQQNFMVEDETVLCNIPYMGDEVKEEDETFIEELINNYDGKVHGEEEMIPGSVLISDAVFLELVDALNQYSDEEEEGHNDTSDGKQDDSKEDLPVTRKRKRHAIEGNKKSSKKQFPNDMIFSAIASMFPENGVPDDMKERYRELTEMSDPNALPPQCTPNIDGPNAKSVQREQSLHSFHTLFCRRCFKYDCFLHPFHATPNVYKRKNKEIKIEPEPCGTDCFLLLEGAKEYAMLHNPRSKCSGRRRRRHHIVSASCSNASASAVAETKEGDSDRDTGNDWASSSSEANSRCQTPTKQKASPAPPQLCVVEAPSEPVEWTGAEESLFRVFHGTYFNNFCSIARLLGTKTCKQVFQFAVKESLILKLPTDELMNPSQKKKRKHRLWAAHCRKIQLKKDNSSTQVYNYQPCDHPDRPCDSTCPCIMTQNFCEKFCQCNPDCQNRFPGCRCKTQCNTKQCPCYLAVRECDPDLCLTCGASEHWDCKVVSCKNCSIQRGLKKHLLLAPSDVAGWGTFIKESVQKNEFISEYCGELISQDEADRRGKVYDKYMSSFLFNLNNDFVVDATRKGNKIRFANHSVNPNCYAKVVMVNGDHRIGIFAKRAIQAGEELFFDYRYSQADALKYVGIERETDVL

[22] = biological target: Histone-lysine N-methyltransferase NSD3 (Homo sapiens, UniProt Q9BZ95); assay: Selectivity interaction (Methyltransferase panel (Scintillation proximity assay (SPA))) EUB0000212b NSD3
[23] = biological target: Histone-lysine N-methyltransferase SETDB1 (Homo sapiens, UniProt Q15047); assay: Selectivity interaction (Methyltransferase panel (Scintillation proximity assay (SPA))) EUB0000212b SETDB1
[24] = biological target: Protein arginine N-methyltransferase 3 (Homo sapiens, UniProt O60678); assay: Selectivity interaction (Methyltransferase panel (Scintillation proximity assay (SPA))) EUB0000212b PRMT3
[25] = biological target: Histone-lysine N-methyltransferase NSD2 (Homo sapiens, UniProt O96028); assay: Selectivity interaction (Methyltransferase panel (Scintillation proximity assay (SPA))) EUB0000212b NSD2

- % of control [1]: 22%
- % of inhibition [2]: 94%
- % of control [3]: 47%
- % of control [4]: 49%
- Ki [5]: 1.11 µM
- % of inhibition [6]: 99%
SMILES: CNC(=O)Nc1ccc2c(c1)CC[C@@]21OC(=O)N(CC(=O)N(Cc2ccc(F)cc2)[C@@H](C)C(F)(F)F)C1=O [A-485]

- EC50 [7]: > 50 µM
- EC50 [8]: > 50 µM
- EC50 [9]: > 50 µM
- EC50 [10]: > 50 µM
- EC50 [11]: > 50 µM
- EC50 [12]: > 50 µM
- EC50 [13]: > 50 µM
- EC50 [14]: > 50 µM
- EC50 [15]: > 50 µM
- EC50 [16]: > 50 µM
- EC50 [17]: > 50 µM
- EC50 [18]: > 50 µM
- EC50 [19]: > 50 µM
- EC50 [20]: > 50 µM
- EC50 [21]: > 50 µM
- EC50 [22]: > 50 µM
- EC50 [23]: > 50 µM
- EC50 [24]: > 50 µM
- EC50 [25]: > 50 µM
SMILES: COc1cc2c(cc1OCCCN1CCCC1)N=C(N)C21CCC1
